US6420313B1, “Thienylalkylamino-1,3,5-triazines and the use thereof as herbicides” (Bayer Aktiengesellschaft, priority 1998, dated 2002)

How the values were obtained:
Type in all cases: in vivo
Solanum = assay: Pre-emergence test/greenhouse, Solanum; conditions: 500 g of ai./ha, after three weeks
Experimental: (§1) Solvent: 5 parts by weight of acetone
(§2) Emulsifier: 1 part by weight of alkylaryl polyglycol ether
(§3) To produce a suitable preparation of active compound, 1 part by weight of active compound is mixed with the stated amount of solvent, the stated amount of emulsifier is added and the concentrate is diluted with water to the desired concentration.
(§4) Seeds of the test plants are sown in normal soil. After about 24 hours, the soil is sprayed with the preparation of active compound such that the particular amount of active compound desired is applied per unit area. The concentration of the spray liquor is chosen so that the particular amount of active compound desired is applied in 1000 liters of water per hectare.
(§5) After three weeks, the degree of damage to the plants is rated in % damage in comparison to the development of the untreated control.
(§6) 0%=no effect (like untreated control)

Chenopodium = assay: Pre-emergence test/greenhouse, Chenopodium; conditions: 500 g of ai./ha, after three weeks
Experimental: as §1, §2, §3, §4, §5, §6

Digitaria = assay: Pre-emergence test/greenhouse, Digitaria; conditions: 500 g of ai./ha, after three weeks
Experimental: as §1, §2, §3, §4, §5, §6

Veronica = assay: Pre-emergence test/greenhouse, Veronica; conditions: 504 h, 500 g of ai./ha, after three weeks, read-out: degree of damage, Veronica
Experimental: as §1, §2, §3, §4, §5, §6

Viola = assay: Pre-emergence test/greenhouse, Viola; conditions: after three weeks
Experimental: as §1, §2, §3, §4, §5, §6

barley = assay: Pre-emergence test/greenhouse, barley; conditions: 500 g of ai./ha, after three weeks
Experimental: as §1, §2, §3, §4, §5, §6

Setaria = assay: Pre-emergence test/greenhouse, Setaria; conditions: 500 g of ai./ha, after three weeks
Experimental: as §1, §2, §3, §4, §5, §6

Cyperus = assay: Pre-emergence test/greenhouse, Cyperus; conditions: 500 g of ai./ha, after three weeks
Experimental: as §1, §2, §3, §4, §5, §6

Matricaria = assay: Pre-emergence test/greenhouse, Matricaria; conditions: 500 g of ai./ha, after three weeks
Experimental: as §1, §2, §3, §4, §5, §6

Datura = assay: Pre-emergence test/greenhouse, Datura; conditions: 500 g of ai./ha, after three weeks
Experimental: as §1, §2, §3, §4, §5, §6

cotton = assay: Pre-emergence test/greenhouse, cotton; conditions: 500 g of ai./ha, after three weeks
Experimental: as §1, §2, §3, §4, §5, §6

soya = assay: Pre-emergence test/greenhouse, soya; conditions: 500 g of ai./ha, after three weeks
Experimental: as §1, §2, §3, §4, §5, §6

Lolium = assay: Pre-emergence test/greenhouse, Lolium; conditions: 500 g of ai./ha, after three weeks
Experimental: as §1, §2, §3, §4, §5, §6

## CCC(CCc1cc(Br)cs1)Nc1nc(NC(C)=O)nc(C(C)(C)F)n1 (stereo not drawn) [drawing 239]
Solanum
  degree of damage, Solanum: 100%
Chenopodium
  degree of damage, Chenopodium: 100%
Digitaria
  degree of damage, Digitaria: 100%
Veronica
  pest or weed control at 500 g/ha: 100%

## CCC(CCc1sccc1Br)Nc1nc(N)nc(C(C)(C)F)n1 (stereo not drawn) [drawing 240]
Veronica
  pest or weed control at 500 g/ha: 100%

## CCC(CCc1sccc1Br)Nc1nc(N)nc(C(C)F)n1 (stereo not drawn) [drawing 241]
Solanum
  degree of damage, Solanum: 100%
Digitaria
  degree of damage, Digitaria: 100%
Veronica
  pest or weed control at 500 g/ha: 100%

## CCC(CCc1sccc1Br)Nc1nc(NC(C)=O)nc(C(C)F)n1 (stereo not drawn) [drawing 242]
Solanum
  degree of damage, Solanum: 100%
Veronica
  pest or weed control at 500 g/ha: 100%

## CCC(CCc1cc(C)sc1C)Nc1nc(N)nc(C(C)F)n1 (stereo not drawn) [drawing 243]
Solanum
  degree of damage, Solanum: 100%
Digitaria
  degree of damage, Digitaria: 100%
Veronica
  pest or weed control at 500 g/ha: 100%

## CCC(CCc1cc(C)sc1C)Nc1nc(NC(C)=O)nc(C(C)(C)F)n1 (stereo not drawn) [drawing 244]
Veronica
  pest or weed control at 500 g/ha: 100%

## CC(CCCc1cccs1)Nc1nc(N)nc(C(C)(C)F)n1 (stereo not drawn) [drawing 245]
Viola; 1000 g of ai./ha
  degree of damage, Viola: 100%

## CCC(CCc1ccc(Br)s1)Nc1nc(N)nc(C(C)F)n1 (stereo not drawn) [drawing 246]
Viola; 500 g of ai./ha
  degree of damage, Viola: 100%

## CCC(CCc1ccc(Br)s1)Nc1nc(N)nc(C(C)(C)F)n1 (stereo not drawn) [drawing 247]
Viola; 500 g of ai./ha
  degree of damage, Viola: 100%

## CCC(CCc1cc(Br)cs1)Nc1nc(NC(C)=O)nc(C(C)F)n1 (stereo not drawn) [drawing 248]
barley
  degree of damage, barley: 0%
Setaria
  degree of damage, Setaria: 95%
Viola; 500 g of ai./ha
  degree of damage, Viola: 100%

## CCC(CCc1cc(Br)cs1)Nc1nc(NC(C)=O)nc(C(C)(C)F)n1 (stereo not drawn) [drawing 249]
Setaria
  degree of damage, Setaria: 95%
Viola; 500 g of ai./ha
  degree of damage, Viola: 100%

## CCC(CCc1sccc1Br)Nc1nc(N)nc(C(C)(C)F)n1 (stereo not drawn) [drawing 250]
Cyperus
  degree of damage, Cyperus: 100%
Matricaria
  degree of damage, Matricaria: 100%

## CCC(CCc1sccc1Br)Nc1nc(NC(C)=O)nc(C(C)F)n1 (stereo not drawn) [drawing 252]
Matricaria
  degree of damage, Matricaria: 100%

## CCC(CCc1cc(C)sc1C)Nc1nc(N)nc(C(C)F)n1 (stereo not drawn) [drawing 253]
Viola; 500 g of ai./ha
  degree of damage, Viola: 100%

## CCC(CCc1cc(C)sc1C)Nc1nc(NC(C)=O)nc(C(C)(C)F)n1 (stereo not drawn) [drawing 254]
Matricaria
  degree of damage, Matricaria: 95%
Viola; 500 g of ai./ha
  degree of damage, Viola: 100%

## CCC(CCc1sccc1Br)Nc1nc(N)nc(C(C)F)n1 (stereo not drawn) [drawing 261]
Datura
  degree of damage, Datura: 100%
cotton
  degree of damage, cotton: 0%

## CCC(CCc1sccc1Br)Nc1nc(NC(C)=O)nc(C(C)F)n1 (stereo not drawn) [drawing 262]
cotton
  degree of damage, cotton: 0%

## CCC(CCc1cc(C)sc1C)Nc1nc(N)nc(C(C)F)n1 (stereo not drawn) [drawing 263]
soya
  degree of damage, soya: 0%

## CCC(CCc1cc(C)sc1C)Nc1nc(NC(C)=O)nc(C(C)(C)F)n1 (stereo not drawn) [drawing 264]
Lolium
  degree of damage, Lolium: 90%
